Laboratory results as given in US11491155B2, “Salt of a pyrimido[6,1-A]isoquinolin-4-one compound” (VERONA PHARMA PLC, priority 2015, dated 2022).
Structures can show the parent of a compound that is named as a salt.

Tests used:
Format in all cases: physicochemical
[1] = Behaviour to humidity by Gravimetric Vapour Sorption (GVS); conditions: for Behaviour to humidity: GVS, 0-90% humidity, 25° C.; for water adsorbed: up to 90% humidity
Protocol: Gravimetric Vapour Sorption—Sorption isotherms were obtained using a Hiden Isochema moisture sorption analyser (model IGAsorp), controlled by IGAsorp Systems Software V6.50.48. The sample was maintained at a constant temperature (25° C.) by the instrument controls. The humidity was controlled by mixing streams of dry and wet nitrogen, with a total flow of 250 ml·min^−1. The instrument was verified for relative humidity content by measuring three calibrated Rotronic salt solutions (10-50-88%). The weight change of the sample was monitored as a function of humidity by a microbalance (accuracy+/−0.005 mg). A defined amount of sample was placed in a tared mesh stainless steel basket under ambient conditions. A full experimental cycle typically consisted of three scans (sorption, desorption and sorption) at a constant temperature (25° C.) and 10% RH intervals over a 0-90% range (60 minutes for each humidity level).
(§1) The nature of the hydration and a preliminary examination of salt robustness/polymorphism was assessed by thermal manipulation using ThermoGravimetric Analysis (TGA) and Gravimetric Vapor Soprtion (GVS).

[2] = Solubility of RPL554 salts in saline solutions, water and aqueous buffer solutions at 25° C. (HPLC); conditions: for Solubility as RPL554 (mg/ml) in 0.7 w/w % Saline / Solubility as RPL554 (mg/ml) in 0.9 w/w % Saline / Solubility as RPL554 (mg/ml) in 1.1 w/w % Saline / Solubility as RPL554 (mg/ml) in Water: 24 hours; for Solubility as RPL554 (mg/ml) in Water: deionised water
Outline: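 Salts or free base (ca 50 mg) suspended in 1 ml of buffered 0.9% saline (pH 3.5–6.5), 0.7–1.1% saline or deionised water, agitated 24 h at 25° C. Filtrates analysed by HPLC with single-point calibration; solubility expressed as RPL554 free base, not salt.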

[3] = Thermal manipulation (isothermal 105° C., thermal cycle; TGA/DSC/XRPD)
Protocol: Differential Scanning calorimetry (DSC)—DSC data were collected on a PerkinElmer Pyris 4000 DSC equipped with a 45 position sample holder. The instrument was verified for energy and temperature calibration using certified indium. A predefined amount of the sample, 0.5-3.0 mg, was placed in a pin holed aluminium pan and heated at 20° C.·min^−1 from 30 to 350° C., or varied as experimentation dictated. A purge of dry nitrogen at 60 ml·min^−1 was maintained over the sample. The instrument control, data acquisition and analysis were performed with Pyris Software v9.0.1.0203.
Thermo-Gravimetric Analysis (TGA)—TGA data were collected on a PerkinElmer Pyris 1 TGA equipped with a 20 position auto-sampler. The instrument was calibrated using a certified weight and certified Alumel and Perkalloy for temperature. A predefined amount of the sample, 1-5 mg, was loaded onto a pre-tared aluminium crucible and was heated at 20° C.·min^−1 from ambient temperature to 400° C. A nitrogen purge at 20 ml·min^−1 was maintained over the sample. The instrument control, data acquisition and analysis were performed with Pyris Software v9.0.1.0203.
as §1

[4] = Stability assessment of RPL554 and salts: lactose powder blends (70° C., seven days); conditions: after storage at both room and elevated (70° C.) temperatures, 7 days
Protocol: A validated HPLC method (Onyx-Scientific, Final product testing monograph for RPL554) for the determination of chemical purity by HPLC was used.
The following chromatography conditions were used: Column: Waters X Bridge phenyl, 3.5 μm, 150×4.6 mm, (Part number 186003335); Diluent: Acetonitrile:Water (50:50, v/v); Mobile Phase: A—Purified Water:Trifluoroacetic acid (100:0.1); B—Acetonitrile:Trifluoroacetic acid (100:0.1); Flow Rate: 1.0 mL/min; Injection Volume: 10 μl; Detection: UV @ 254 nm; Column Temperature: 30° C.; Post Run: 5 min; Gradient: [Time (min): % A:% B]: [0: 95:5], [2: 95:5]; [15: 5:95], [20: 5:95], [22: 95:5].
Samples of 1% w/w RPL554 free base or salt variants: lactose blends were prepared and stored at elevated temperature (70° C.) for seven days, control samples were stored at ambient conditions and protected from light on the laboratory bench. All samples (approximately 0.5 g) were accurately weighed into screw cap glass scintillation vials (20 mL). For storage at elevated temperature samples were placed in an oven at 70° C. protected from light. Control sample vials were capped, protected from light and stored on the bench for 7 days.
In addition, to the RPL554 and salt variant blends, samples of lactose alone were also stored at the elevated temperature condition (control samples at ambient). The lactose only samples served as baseline data for the HPLC analysis. […]

[5] = listed as ethane-1,2-disulfonate salt
[6] = listed as hydrochloride salt, hydrochloride

Compound | Behaviour to humidity [1, 5] | water uptake ([1]; to 50% humidity) [mole equivalents] | water adsorbed [1, 5] | Solubility as RPL554 (mg/ml) in 0.7 w/w % Saline [2] [mg/mL] | Behaviour to humidity [1, 6] | water adsorbed [1, 6] | form change by thermal manipulation ([3]; below the melt endotherm) | Thermal cycle ([3]; hydrochloride) | Solubility as RPL554 (mg/ml) in 0.7 w/w % Saline ([2]; hydrochloride) [mg/mL] | Solubility as RPL554 (mg/ml) in 0.9 w/w % Saline ([2]; hydrochloride) [mg/mL] | Solubility as RPL554 (mg/ml) in 1.1 w/w % Saline ([2]; hydrochloride) [mg/mL] | Solubility as RPL554 (mg/ml) in Water ([2]; hydrochloride) [mg/mL] | solubility at 24 h ([2]; phosphate buffer in 0.9% w/w saline, 25 °C, pH 6.5, aqueous buffer, thermodynamic from solid, in saline 0.9% w/w, read-out: Solubility as RPL554 (mg/ml) in buffer solution pH 6.5, Phosphate) [mg/mL] | Solubility as RPL554 (mg/ml) in 0.9 w/w % Saline [2] [mg/mL] | Solubility as RPL554 (mg/ml) in 1.1 w/w % Saline [2] [mg/mL] | Solubility as RPL554 (mg/ml) in Water [2] [mg/mL] | peak area of the RPL554, % of the total areas [4] [%]
COc1cc2c(cc1OC)-c1c/c(=N\c3c(C)cc(C)cc3C)n(CCNC(N)=O)c(=O)n1CC2 [Ethane-1,2-disulfonate, RPL554 ethane-1,2-disulfonate] | reversible adsorption and desorption over the humidity range with no hysteresis | 4 | up to 5 mole equivalents | 4.79 | – | – | – | – | – | – | – | – | – | – | – | – | –
COc1cc2c(cc1OC)-c1c/c(=N\c3c(C)cc(C)cc3C)n(CCNC(N)=O)c(=O)n1CC2 [Hydrochloride, RPL554 hydrochloride] | – | – | – | – | reversible adsorption and desorption over the humidity range with no hysteresis | up to 2 mole equivalents | No form change was detected | Stable form | 2.85 | 1.93 | 2.48 | 12.66 | 0.02 | – | – | – | –
COc1cc2c(cc1OC)-c1c/c(=N\c3c(C)cc(C)cc3C)n(CCNC(N)=O)c(=O)n1CC2 [Sulfate, RPL554 sulfate] | – | – | – | 2.78 | – | – | – | – | – | – | – | – | – | 1.94 | 1.35 | 12.11 | 82
